Results on four molecules are retold here after US20200397784A1 (priority 2019, published 2020).

The test system of assay [1] is A/Puerto Rico/8/34. Format: cell-based, influenza A virus.
The test system of assay [2] is A/Puerto Rico/8/34.
The subject of a further assay is influenza A/PR/8/34. Put plainly: Mouse influenza A model, combination of Compound (1) with zanamivir. The assay is classed as in vivo. To be noted: A/PR/8/34 mice, no Compound (1). As to the method: Infected mice were treated with vehicle or escalating dose levels of Form A of the Compound (1) HCl hemihydrate salt Form A (hereinafter in this example simply Compound (1)) in combination with zanamivir starting 24 hours prior to influenza A challenge with 5×10^3 TCID50 A/PR/8/34. The influenza A challenge and Compound (1) suspensions were prepared in a similar manner as described above in Example 8. The challenged mice were treated once IN (intranasal) with zanamivir at 0.3 mg/kg, 1 mg/kg or 3 mg/kg 24 hours prior to IN challenge with 5×10^3 TCID50 A/PR/8/34, and with Compound (1) at 0.1 mg/kg, 0.3 mg/kg, or 1 mg/kg BID for 10 days starting −2 hours prior to the challenge with 5×10^3 TCID50 A/PR/8/34.
Efficiency quotient, a composite measure of survival, bodyweight loss and lung function (% survival/(% body weight loss at Day 8)*(Penh at Day 6)) is summarized in Table 24B.

The test system of the next assay is influenza A virus. Format: in vivo, mice.
Assay [3] has as its system influenza virus B/Mass/3/66. Kind of assay: Mouse influenza B model, Compound (1) with or without Oseltamivir. Format: in vivo, Balb/c mice.
The subject of assay [4] is Influenza A/California/04/2009 (pndH1N1) virus. Format: in vivo. The settings on record: pndH1N1 BALB/c mice.
In assay [5] the test system is Influenza A/Vietnam/1203/2004 (H5N1) virus. The assay is classed as in vivo, BALB/c mice. The settings on record: treatment +48 h.
Assay [6] deals with influenza virus A/PR/8/34. Put plainly: Mouse influenza A model, Compound (1) with or without Oseltamivir, treatment +48 h. The assay is classed as in vivo, Balb/c mice.
Assay [7] has as its system Influenza A/Victoria/3/75 (H3N2) virus. Format: in vivo, BALB/c mice.
The next assay deals with influenza A. Put plainly: Mouse influenza A model: lung viral titer. The assay is classed as in vivo, mice. The settings on record: study day 6. As for the experimental part: The effectiveness of Compound (1) to reduce lung viral titers was investigated. Mice were infected with influenza A and 24 h later vehicle, oseltamivir (10 mg/kg BID) or Compound (1) (3, 10, 30 mg/kg BID) was administered until lung harvest and viral burden determination on day 6 (Table 27).

[8] abbreviates: treatment start +24 h, 10 mg/kg BID.
[9] abbreviates: treatment start +48 h, 10 mg/kg BID.
Setting [10] is: treatment start +72 h, 10 mg/kg BID.
[11] abbreviates: influenza B/Mass/3/66 mice, Oseltamivir 10 mg/kg PO BID 10 days alone.
Where [12] appears, read: Oseltamivir 10 mg/kg BID prophylaxis.
The mark [13] stands for this setting: 10 mg/kg twice a day for 10 days.
The mark [14] stands for this setting: influenza A/PR/8/34 mice, Oseltamivir 10 mg/kg PO BID 10 days alone, from +48 h.
Where [15] appears, read: 10 mg/kg twice a day for 10 days starting 2 hours prior to virus exposure.
The mark [16] stands for this setting: 10 mg/kg twice a day, prophylaxis.

Where two headings read alike, the source gives them in different places. Marks after values point to notes of the source that are not given here.

As for `NC(=O)c1nc(F)c[nH]c1=O` [favipiravir], the synergy volume in the assay with A/Puerto Rico/8/34 [1] turned out to be 317. In the assay with A/Puerto Rico/8/34 [2], the “C.I. (combination index)” value is given as 0.89.

`CC(=O)N[C@H]1[C@H]([C@H](O)[C@H](O)CO)OC(C(=O)O)=C[C@@H]1N=C(N)N` [Zanamivir, zanamivir]: the “Survival Rate” value in the assay on influenza A/PR/8/34 (Zanamivir 0.3 mg/kg IN x 1, 24 h prior to infection) is 37.5; in the assay with influenza A/PR/8/34 (Zanamivir 1 mg/kg IN x 1, 24 h prior to infection) it was 50; in the assay with influenza A/PR/8/34 (Zanamivir 3 mg/kg IN x 1, 24 h prior to infection) it was 62.5. The “Efficiency Quotient (% survival/(% body weight loss at Day 8)*(Penh at Day 6))” value is recorded as 0.44 in the assay with influenza A/PR/8/34 (Zanamivir 0.3 mg/kg IN x 1), 0.73 in the assay with influenza A/PR/8/34 (Zanamivir 1 mg/kg IN x 1) and 0.73 with influenza A/PR/8/34 (Zanamivir 3 mg/kg IN x 1). Moreover, in the assay on A/Puerto Rico/8/34 [1], the synergy volume was 268. Further, the “C.I. (combination index)” value in the assay with A/Puerto Rico/8/34 [2] was 0.64.

Take `CCC(CC)O[C@@H]1C=C(C(=O)O)C[C@H](N)[C@H]1NC(C)=O` [oseltamivir carboxylate]: the synergy volume in the assay with A/Puerto Rico/8/34 [1] (in combination with Compound (1), Bliss independence method, […]) is given as 312.

`CCOC(=O)C1=C[C@@H](OC(CC)CC)[C@H](NC(C)=O)[C@@H](N)C1` [Oseltamivir, oseltamivir]: the survival result in the assay with influenza A virus (mouse influenza A model, oseltamivir 10 mg/kg BID, same experiment) is listed as “All of the oseltamivir-administered mice survived”; with influenza A virus (mouse, in vivo), “All of the oseltamivir-administered mice survived”. In the assay on influenza A virus (mouse, in vivo), the “protection with delayed dosing” value is reported as “only provided complete protection when dosing was initiated 24 h or less”. The “Percent Survival” value in the assay with influenza A virus (mouse, in vivo, 10 mg/kg) was 100%; in the assay on influenza A virus (setting [8]), 100%; in the assay with influenza A virus (setting [9]) it was 80%; with influenza A virus (setting [10]) it was 0%. Besides, the “Percent Body Weight Loss on Study Day 8” value is −28.9% in the assay with influenza A virus (setting [8]); −31.1% in the assay on influenza A virus (setting [9]); −31.3% in the assay on influenza A virus (setting [10]); −19.1% in the assay on influenza A virus (treatment start −2 h, 10 mg/kg BID). The “protection from death, BW loss, lung function” value in [3] (Oseltamivir 10 mg/kg alone, 2 hours prior to influenza B infection) was “complete protection from death”; in [6] (Oseltamivir 10 mg/kg alone, +48 hours post influenza A infection) it was “did not protect from death”. In addition, the “Penh (Day 6/7)” value in assay [3] (setting [11]) is 1.08. Further, the results for the “Survival (21 days)” value in [3] (setting [11]) and in assay [6] (setting [14]) were 100% and 0%, respectively. In addition, the “Weight Loss (Day 8)” value was 12.8% in assay [3] (setting [11]) and 32.0% in assay [6] (setting [14]). In addition, the “Mean Lung Parameters (Day 6): Virus Titer” value stood at 7.9 ± 0.2 Log10 CCID50/g in assay [4] (setting [12]), 5.22 ± 0.38 Log10 CCID50/g in [5] (10 mg/kg twice a day) and 7.0 ± 0.3 Log10 CCID50/g in [7] (setting [16]). The “Mean Lung Parameters (Day 6): Weight” value stood at 178 ± 28 mg in assay [4] (setting [12]) and 218 ± 24 mg in assay [7] (setting [16]). In addition, the “Mean Lung Parameters (Day 6): Score” value is recorded as 1.0 ± 0.0^e in assay [4] (Oseltamivir 10 mg/kg BID prophylaxis, hemorrhage score 0-4) and 1.7 ± 1.1 in [7] (10 mg/kg twice a day, prophylaxis, lung hemorrhage score 0-4). The Survivors/Total in assay [4] (Oseltamivir 10 mg/kg twice a day for 10 days starting 2 hours prior to virus exposure) was 10/10***; in assay [5] (setting [13]), 0/10; in assay [7] (setting [15]), 9/10***. Besides, the “MDD ± SD (mean day of death of mice that died on or before day 21)” value was determined as 9.5 ± 1.2 days in assay [5] (setting [13]) and 7.0 days in assay [7] (setting [15]). In addition, the “Penh (Day 3)” value in assay [6] (setting [14]) is listed as 2.36. For the same molecule, the “Lung Viral Titer” value in the assay on influenza A (Study 1, 10 mg/kg BID from 24 h post infection for 5 days) amounted to 6.05 Log10 TCID50. Also, the “Log10 Reduction vs. Vehicle” value with influenza A (Study 1, 10 mg/kg BID from 24 h post infection) is recorded as −0.15 Log10. For the same molecule, the “C.I. (combination index)” value with A/Puerto Rico/8/34 [2] was found to be 0.58.
